Legend:
Settings in all cases: exposure time: 72 h
[1] = test system: E13 (patient-derived glioblastoma stem cells of classical subtype); assay: surviving fraction (nuclei count normalised to DMSO); higher = more cells surviving (less toxic)
[2] = test system: E21 (patient-derived glioblastoma stem cells of mesenchymal subtype); assay: as above
[3] = test system: E28 (patient-derived glioblastoma stem cells of classical subtype); assay: as above
[4] = test system: E34 (patient-derived glioblastoma stem cells of proneural subtype); assay: as above
[5] = test system: E57 (patient-derived glioblastoma stem cells of mesenchymal subtype); assay: as above
[6] = test system: FT3469 (normal neural stem cell line); assay: as above
[7] = test system: E13; assay: phenotypic distance (Euclidean, principal components) from DMSO controls (arbitrary units); higher = stronger morphological change
[8] = test system: E21; assay: as above
[9] = test system: E28; assay: as above
[10] = test system: E34; assay: as above
[11] = test system: E57; assay: as above
[12] = test system: FT3469; assay: as above
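Throughout, for phenotypic distance (Euclidean, principal components) from DMSO controls: cell Painting imaging in 384-well plates, CellProfiler features reduced to at least 20 principal components, Euclidean distance versus same-plate DMSO vehicle wells (0.1% v/v), median over six images per well.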
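Throughout, for surviving fraction (nuclei count normalised to DMSO): nuclei counted by high-content imaging of Hoechst-stained cells in laminin-coated 384-well plates, relative to 0.1% DMSO vehicle wells, with staurosporine as cell-death control.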

Cc1cc(C)c(CN2CCc3c(Cl)cc(-c4c(C)noc4C)c(Cl)c3C2=O)c(=O)[nH]1
Settings	phenotypic distance	surviving fraction
[1], 4.1 nM	–	1.06
[1], 4.11523 nM	–	0.856
[1], 12.3 nM	–	1.14
[1], 12.34567901 nM	–	0.965
[1], 37 nM	–	0.832
[1], 37.037 nM	–	1
[1], 111.1 nM	–	1.12
[1], 111.1111111 nM	–	1.02
[1], 333.3 nM	–	0.891
[1], 333.333 nM	–	1.06
[1], 1000 nM	–	1.01
[1], 3000 nM	–	0.89
[2], 4.1 nM	–	0.906
[2], 4.11523 nM	–	0.889
[2], 12.3 nM	–	1.06
[2], 12.34567901 nM	–	0.956
[2], 37 nM	–	0.952
[2], 37.037 nM	–	0.858
[2], 111.1 nM	–	1.03
[2], 111.1111111 nM	–	1.03
[2], 333.3 nM	–	0.966
[2], 333.333 nM	–	0.985
[2], 1000 nM	–	0.973
[2], 3000 nM	–	0.984
[3], 4.1 nM	–	0.912
[3], 4.11523 nM	–	1.06
[3], 12.3 nM	–	1.07
[3], 12.34567901 nM	–	0.996
[3], 37 nM	–	0.901
[3], 37.037 nM	–	1.05
[3], 111.1 nM	–	0.947
[3], 111.1111111 nM	–	0.947
[3], 333.3 nM	–	0.95
[3], 333.333 nM	–	1.17
[3], 1000 nM	–	0.98
[3], 3000 nM	–	0.991
[4], 4.1 nM	–	0.921
[4], 4.11523 nM	–	0.993
[4], 12.3 nM	–	1.13
[4], 12.34567901 nM	–	0.993
[4], 37 nM	–	0.811
[4], 37.037 nM	–	0.929
[4], 111.1 nM	–	1.11
[4], 111.1111111 nM	–	0.938
[4], 333.3 nM	–	0.85
[4], 333.333 nM	–	1.01
[4], 1000 nM	–	0.861
[4], 3000 nM	–	0.96
[5], 4.1 nM	–	0.932
[5], 4.11523 nM	–	0.986
[5], 12.3 nM	–	0.955
[5], 12.34567901 nM	–	0.938
[5], 37 nM	–	1.02
[5], 37.037 nM	–	1.04
[5], 111.1 nM	–	0.932
[5], 111.1111111 nM	–	1.01
[5], 333.3 nM	–	1
[5], 333.333 nM	–	1.01
[5], 1000 nM	–	1.02
[5], 3000 nM	–	1.06
[6], 4.1 nM	–	0.866
[6], 4.11523 nM	–	0.918
[6], 12.3 nM	–	0.934
[6], 12.34567901 nM	–	0.961
[6], 37 nM	–	0.862
[6], 37.037 nM	–	0.857
[6], 111.1 nM	–	0.892
[6], 111.1111111 nM	–	1.05
[6], 333.3 nM	–	0.977
[6], 333.333 nM	–	0.9
[6], 1000 nM	–	0.914
[6], 3000 nM	–	0.971
[7], 4.1 nM	0.55	–
[7], 4.11523 nM	0.762	–
[7], 12.3 nM	0.528	–
[7], 12.34567901 nM	0.464	–
[7], 37 nM	0.636	–
[7], 37.037 nM	0.555	–
[7], 111.1 nM	0.599	–
[7], 111.1111111 nM	0.586	–
[7], 333.3 nM	0.546	–
[7], 333.333 nM	2.27	–
[7], 1000 nM	0.5296	–
[7], 3000 nM	1.67	–
[8], 4.1 nM	0.846	–
[8], 4.11523 nM	0.624	–
[8], 12.3 nM	0.502	–
[8], 12.34567901 nM	0.663	–
[8], 37 nM	0.782	–
[8], 37.037 nM	0.448	–
[8], 111.1 nM	0.333	–
[8], 111.1111111 nM	2.67	–
[8], 333.3 nM	1.29	–
[8], 333.333 nM	0.358	–
[8], 1000 nM	0.536	–
[8], 3000 nM	0.603	–
[9], 4.1 nM	0.563	–
[9], 4.11523 nM	0.484	–
[9], 12.3 nM	0.447	–
[9], 12.34567901 nM	0.539	–
[9], 37 nM	0.798	–
[9], 37.037 nM	0.532	–
[9], 111.1 nM	0.371	–
[9], 111.1111111 nM	2.05	–
[9], 333.3 nM	0.616	–
[9], 333.333 nM	0.607	–
[9], 1000 nM	0.701	–
[9], 3000 nM	0.617	–
[10], 4.1 nM	0.88	–
[10], 4.11523 nM	0.409	–
[10], 12.3 nM	0.682	–
[10], 12.34567901 nM	0.739	–
[10], 37 nM	1.1	–
[10], 37.037 nM	0.359	–
[10], 111.1 nM	0.667	–
[10], 111.1111111 nM	0.478	–
[10], 333.3 nM	1.23	–
[10], 333.333 nM	0.552	–
[10], 1000 nM	0.66	–
[10], 3000 nM	1.1	–
[11], 4.1 nM	0.289	–
[11], 4.11523 nM	0.517	–
[11], 12.3 nM	0.432	–
[11], 12.34567901 nM	0.412	–
[11], 37 nM	0.351	–
[11], 37.037 nM	0.334	–
[11], 111.1 nM	0.307	–
[11], 111.1111111 nM	0.418	–
[11], 333.3 nM	0.28	–
[11], 333.333 nM	0.343	–
[11], 1000 nM	0.373	–
[11], 3000 nM	0.511	–
[12], 4.1 nM	0.799	–
[12], 4.11523 nM	0.574	–
[12], 12.3 nM	0.456	–
[12], 12.34567901 nM	0.531	–
[12], 37 nM	3.66	–
[12], 37.037 nM	0.66	–
[12], 111.1 nM	0.618	–
[12], 111.1111111 nM	0.467	–
[12], 333.3 nM	0.925	–
[12], 333.333 nM	1.74	–
[12], 1000 nM	0.694	–
[12], 3000 nM	0.451	–
